Assay results: BigSolDB 2.1

## Cn1cc([N+](=O)[O-])cn1
In 1,2-dichlorobenzene, 283.15 K
  solubility (mole fraction): 0.000121
In 1,2-dichlorobenzene, 288.15 K
  solubility (mole fraction): 0.000147
In 1,2-dichlorobenzene, 293.15 K
  solubility (mole fraction): 0.000179
In 1,2-dichlorobenzene, 298.15 K
  solubility (mole fraction): 0.000215
In 1,2-dichlorobenzene, 303.15 K
  solubility (mole fraction): 0.000266
In 1,2-dichlorobenzene, 308.15 K
  solubility (mole fraction): 0.000331
In 1,2-dichlorobenzene, 313.15 K
  solubility (mole fraction): 0.000402
In 1,2-dichlorobenzene, 318.15 K
  solubility (mole fraction): 0.000492
In 1,2-dichlorobenzene, 323.15 K
  solubility (mole fraction): 0.000607
In 2-butanone, 283.15 K
  solubility (mole fraction): 0.0093
In 2-butanone, 288.15 K
  solubility (mole fraction): 0.0098
In 2-butanone, 293.15 K
  solubility (mole fraction): 0.0112
In 2-butanone, 298.15 K
  solubility (mole fraction): 0.0139
In 2-butanone, 303.15 K
  solubility (mole fraction): 0.0162
In 2-butanone, 308.15 K
  solubility (mole fraction): 0.0177
In 2-butanone, 313.15 K
  solubility (mole fraction): 0.021
In 2-butanone, 318.15 K
  solubility (mole fraction): 0.0242
In 2-butanone, 323.15 K
  solubility (mole fraction): 0.0285
In 2-pentanol, 283.15 K
  solubility (mole fraction): 0.000501
In 2-pentanol, 288.15 K
  solubility (mole fraction): 0.000685
In 2-pentanol, 293.15 K
  solubility (mole fraction): 0.000871
In 2-pentanol, 298.15 K
  solubility (mole fraction): 0.0011
In 2-pentanol, 303.15 K
  solubility (mole fraction): 0.00142
In 2-pentanol, 308.15 K
  solubility (mole fraction): 0.00175
In 2-pentanol, 313.15 K
  solubility (mole fraction): 0.00221
In 2-pentanol, 318.15 K
  solubility (mole fraction): 0.00278
In 2-pentanol, 323.15 K
  solubility (mole fraction): 0.00348
In acetic acid, 283.15 K
  solubility (mole fraction): 0.000218
In acetic acid, 288.15 K
  solubility (mole fraction): 0.000296
In acetic acid, 293.15 K
  solubility (mole fraction): 0.00039
In acetic acid, 298.15 K
  solubility (mole fraction): 0.000508
In acetic acid, 303.15 K
  solubility (mole fraction): 0.000633
In acetic acid, 308.15 K
  solubility (mole fraction): 0.000776
In acetic acid, 313.15 K
  solubility (mole fraction): 0.000925
In acetic acid, 318.15 K
  solubility (mole fraction): 0.00108
In acetic acid, 323.15 K
  solubility (mole fraction): 0.0012
In acetone, 283.15 K
  solubility (mole fraction): 0.0192
In acetone, 288.15 K
  solubility (mole fraction): 0.0239
In acetone, 293.15 K
  solubility (mole fraction): 0.0299
In acetone, 298.15 K
  solubility (mole fraction): 0.0379
In acetone, 303.15 K
  solubility (mole fraction): 0.0485
In acetone, 308.15 K
  solubility (mole fraction): 0.0626
In acetone, 313.15 K
  solubility (mole fraction): 0.0814
In acetone, 318.15 K
  solubility (mole fraction): 0.107
In acetone, 323.15 K
  solubility (mole fraction): 0.141
In acetonitrile, 283.15 K
  solubility (mole fraction): 0.00299
In acetonitrile, 288.15 K
  solubility (mole fraction): 0.00334
In acetonitrile, 293.15 K
  solubility (mole fraction): 0.00423
In acetonitrile, 298.15 K
  solubility (mole fraction): 0.00507
In acetonitrile, 303.15 K
  solubility (mole fraction): 0.006
In acetonitrile, 308.15 K
  solubility (mole fraction): 0.00673
In acetonitrile, 313.15 K
  solubility (mole fraction): 0.00756
In acetonitrile, 318.15 K
  solubility (mole fraction): 0.00937
In acetonitrile, 323.15 K
  solubility (mole fraction): 0.0117
In ethanol, 283.15 K
  solubility (mole fraction): 0.00483
In ethanol, 288.15 K
  solubility (mole fraction): 0.00511
In ethanol, 293.15 K
  solubility (mole fraction): 0.00546
In ethanol, 298.15 K
  solubility (mole fraction): 0.00581
In ethanol, 303.15 K
  solubility (mole fraction): 0.00633
In ethanol, 308.15 K
  solubility (mole fraction): 0.00694
In ethanol, 313.15 K
  solubility (mole fraction): 0.00736
In ethanol, 318.15 K
  solubility (mole fraction): 0.00785
In ethanol, 323.15 K
  solubility (mole fraction): 0.00823
In ethyl acetate, 283.15 K
  solubility (mole fraction): 0.0126
In ethyl acetate, 288.15 K
  solubility (mole fraction): 0.0143
In ethyl acetate, 293.15 K
  solubility (mole fraction): 0.0162
In ethyl acetate, 298.15 K
  solubility (mole fraction): 0.0183
In ethyl acetate, 303.15 K
  solubility (mole fraction): 0.0208
In ethyl acetate, 308.15 K
  solubility (mole fraction): 0.0235
In ethyl acetate, 313.15 K
  solubility (mole fraction): 0.0265
In ethyl acetate, 318.15 K
  solubility (mole fraction): 0.0299
In ethyl acetate, 323.15 K
  solubility (mole fraction): 0.0337
In isopropanol, 283.15 K
  solubility (mole fraction): 0.00185
In isopropanol, 288.15 K
  solubility (mole fraction): 0.00235
In isopropanol, 293.15 K
  solubility (mole fraction): 0.00292
In isopropanol, 298.15 K
  solubility (mole fraction): 0.00363
In isopropanol, 303.15 K
  solubility (mole fraction): 0.00455
In isopropanol, 308.15 K
  solubility (mole fraction): 0.00566
In isopropanol, 313.15 K
  solubility (mole fraction): 0.00697
In isopropanol, 318.15 K
  solubility (mole fraction): 0.0085
In isopropanol, 323.15 K
  solubility (mole fraction): 0.0102
In methanol, 283.15 K
  solubility (mole fraction): 0.00628
In methanol, 288.15 K
  solubility (mole fraction): 0.00699
In methanol, 293.15 K
  solubility (mole fraction): 0.00754
In methanol, 298.15 K
  solubility (mole fraction): 0.00835
In methanol, 303.15 K
  solubility (mole fraction): 0.00923
In methanol, 308.15 K
  solubility (mole fraction): 0.0103
In methanol, 313.15 K
  solubility (mole fraction): 0.0113
In methanol, 318.15 K
  solubility (mole fraction): 0.0126
In methanol, 323.15 K
  solubility (mole fraction): 0.014
In methyl acetate, 283.15 K
  solubility (mole fraction): 0.0161
In methyl acetate, 288.15 K
  solubility (mole fraction): 0.0185
In methyl acetate, 293.15 K
  solubility (mole fraction): 0.022
In methyl acetate, 298.15 K
  solubility (mole fraction): 0.0255
In methyl acetate, 303.15 K
  solubility (mole fraction): 0.0293
In methyl acetate, 308.15 K
  solubility (mole fraction): 0.0351
In methyl acetate, 313.15 K
  solubility (mole fraction): 0.0401
In methyl acetate, 318.15 K
  solubility (mole fraction): 0.0461
In methyl acetate, 323.15 K
  solubility (mole fraction): 0.0519
In n-butanol, 283.15 K
  solubility (mole fraction): 0.00205
In n-butanol, 288.15 K
  solubility (mole fraction): 0.00266
In n-butanol, 293.15 K
  solubility (mole fraction): 0.00323
In n-butanol, 298.15 K
  solubility (mole fraction): 0.00438
In n-butanol, 303.15 K
  solubility (mole fraction): 0.00559
In n-butanol, 308.15 K
  solubility (mole fraction): 0.00709
In n-butanol, 313.15 K
  solubility (mole fraction): 0.0091
In n-butanol, 318.15 K
  solubility (mole fraction): 0.0123
In n-butanol, 323.15 K
  solubility (mole fraction): 0.0154
In n-pentanol, 283.15 K
  solubility (mole fraction): 0.0016
In n-pentanol, 288.15 K
  solubility (mole fraction): 0.00182
In n-pentanol, 293.15 K
  solubility (mole fraction): 0.0021
In n-pentanol, 298.15 K
  solubility (mole fraction): 0.0024
In n-pentanol, 303.15 K
  solubility (mole fraction): 0.00278
In n-pentanol, 308.15 K
  solubility (mole fraction): 0.00325
In n-pentanol, 313.15 K
  solubility (mole fraction): 0.0038
In n-pentanol, 318.15 K
  solubility (mole fraction): 0.00469
In n-pentanol, 323.15 K
  solubility (mole fraction): 0.0054
In n-propanol, 283.15 K
  solubility (mole fraction): 0.00209
In n-propanol, 288.15 K
  solubility (mole fraction): 0.00229
In n-propanol, 293.15 K
  solubility (mole fraction): 0.00259
In n-propanol, 298.15 K
  solubility (mole fraction): 0.00296
In n-propanol, 303.15 K
  solubility (mole fraction): 0.00331
In n-propanol, 308.15 K
  solubility (mole fraction): 0.00382
In n-propanol, 313.15 K
  solubility (mole fraction): 0.00425
In n-propanol, 318.15 K
  solubility (mole fraction): 0.00487
In n-propanol, 323.15 K
  solubility (mole fraction): 0.00553
In sec-butanol, 283.15 K
  solubility (mole fraction): 0.000727
In sec-butanol, 288.15 K
  solubility (mole fraction): 0.000891
In sec-butanol, 293.15 K
  solubility (mole fraction): 0.00112
In sec-butanol, 298.15 K
  solubility (mole fraction): 0.00151
In sec-butanol, 303.15 K
  solubility (mole fraction): 0.00213
In sec-butanol, 308.15 K
  solubility (mole fraction): 0.00287
In sec-butanol, 313.15 K
  solubility (mole fraction): 0.00382
In sec-butanol, 318.15 K
  solubility (mole fraction): 0.00501
In sec-butanol, 323.15 K
  solubility (mole fraction): 0.00632
In toluene, 283.15 K
  solubility (mole fraction): 0.00714
In toluene, 288.15 K
  solubility (mole fraction): 0.00823
In toluene, 293.15 K
  solubility (mole fraction): 0.0095
In toluene, 298.15 K
  solubility (mole fraction): 0.0112
In toluene, 303.15 K
  solubility (mole fraction): 0.0132
In toluene, 308.15 K
  solubility (mole fraction): 0.0156
In toluene, 313.15 K
  solubility (mole fraction): 0.0189
In toluene, 318.15 K
  solubility (mole fraction): 0.0232
In toluene, 323.15 K
  solubility (mole fraction): 0.0276
In water, 283.15 K
  solubility (mole fraction): 7.5e-05
In water, 288.15 K
  solubility (mole fraction): 9.4e-05
In water, 293.15 K
  solubility (mole fraction): 0.000113
In water, 298.15 K
  solubility (mole fraction): 0.000127
In water, 303.15 K
  solubility (mole fraction): 0.000154
In water, 308.15 K
  solubility (mole fraction): 0.000181
In water, 313.15 K
  solubility (mole fraction): 0.000222
In water, 318.15 K
  solubility (mole fraction): 0.000273
In water, 323.15 K
  solubility (mole fraction): 0.000331
